Assay results published in ChEMBL document CHEMBL4627399, “Synthesis and Structure-Activity Relationships of 5'-Aryl-14-alkoxypyridomorphinans: Identification of a μ Opioid Receptor Agonist/δ Opioid Receptor Antagonist Ligand with Systemic Antinociceptive Activity and Diminished Opioid Side Effects” (J Med Chem, 2020).
The source made the active and inactive calls. The calls are words filed in the database; no cut-off is given here.

Legend:
[1] = Induction of spontaneous withdrawal in CD-1 mouse assessed as effect on backward walking steps at 32 mg/kg, sc and administered twice daily at 9 am and 5 pm for 3 days and measured on day 4 for 30 mins; assay type: organism-based; settings: in vivo, 0.5 h
[2] = Induction of physical dependence/precipitated withdrawal in naloxone-induced CD-1 mouse assessed as overall withdrawal score at 32 mg/kg, sc administered twice daily at 9 am and 5 pm for 3 days pretreated followed by naloxone challenge on day 4 at 4 hrs post compound dose and measured for 40 mins; assay type: organism-based; settings: in vivo
[3] = Induction of respiratory depression in CD-1 mouse assessed as reduction in tidal volume at 32 mg/kg, ip measured over 45 mins by plethysmography; assay type: organism-based; settings: in vivo
Mus musculus [4] = test: Antinociceptive activity in CD-1 mouse administered twice daily at 9 am and 5 pm for 3 days measured on day 4 by warm water tail-flick assay; assay type: functional
[5] = Induction of spontaneous withdrawal in CD-1 mouse assessed as effect on number of droppings at 32 mg/kg, sc and administered twice daily at 9 am and 5 pm for 3 days and measured on day 4 for 30 mins; assay type: organism-based; settings: in vivo, 0.5 h
[6] = Reward liability in CD-1 mouse assessed as increase in conditioned place aversion at 20 mg/kg, sc administered for 5 days and measured on day 5 for 15 mins; assay type: ADME, organism-based; settings: in vivo, 0.25 h
Mus musculus [7] = test: Antinociceptive activity in naloxone induced CD-1 mouse at 32 mg/kg, sc measured over 4 hrs by warm water tail-flick assay; assay type: functional, organism-based
[8] = Stability in human liver microsomes at 1 uM measured up to 60 mins by LC-MS/MS analysis; assay type: ADME, Microsome; settings: 1 h
[9] = target: T1, Delta-type opioid receptor (Homo sapiens, UniProt P41143); test: Displacement of [3H]-diprenorphine from human delta opioid receptor expressed in CHO cell membranes incubated for 1 hr by competition radioligand binding assay
[10] = Induction of spontaneous withdrawal in CD-1 mouse assessed as effect on jumping behavior at 32 mg/kg, sc and administered twice daily at 9 am and 5 pm for 3 days and measured on day 4 for 30 mins; assay type: organism-based; settings: in vivo, 0.5 h
[11] = Reward liability in CD-1 mouse assessed as increase in conditioned place preference at 20 mg/kg, sc administered for 5 days and measured on day 5 for 15 mins; assay type: ADME, organism-based; settings: in vivo
[12] = Induction of physical dependence in naloxone-induced CD-1 mouse assessed as increase in jumping behavior at 32 mg/kg, sc administered twice daily at 9 am and 5 pm for 3 days pretreated followed by naloxone challenge on day 4 at 4 hrs post compound dose and measured for 40 mins; assay type: organism-based; settings: in vivo
[13] = Induction of tidal volume in CD-1 mouse up to 32 mg/kg, ip administered via bolus under 5% CO2 exposure for 7 mins and measured over 45 mins by whole body plethysmography; assay type: organism-based; settings: in vivo
[14] = Induction of respiratory depression in CD-1 mouse assessed as reduction in minute ventilation at 32 mg/kg, ip measured over 45 mins by plethysmography; assay type: organism-based; settings: in vivo
Mus musculus [15] = test: Antinociceptive activity in CD-1 mouse at 1 to 10 mg/kg, iv measured after 15 to 90 mins by warm water tail-flick assay; assay type: functional, organism-based
[16] = Induction of spontaneous withdrawal in CD-1 mouse assessed as effect on urine output at 32 mg/kg, sc administered twice daily at 9 am and 5 pm for 3 days and measured on day 4 for 30 mins; assay type: organism-based; settings: in vivo
[17] = target: T1, Delta-type opioid receptor; test: Antagonist activity at human delta opioid receptor expressed in CHO cell membranes assessed as reduction in SNC80-induced [35S]GTPgammaS binding preincubated for 5 mins followed by SNC80 addition and measured after 1 hr; assay type: functional
[18] = Induction of spontaneous withdrawal in CD-1 mouse assessed as wet dog shakes at 32 mg/kg, sc and administered twice daily at 9 am and 5 pm for 3 days and measured on day 4 for 30 mins; assay type: organism-based; settings: in vivo, 0.5 h
[19] = Induction of spontaneous withdrawal in CD-1 mouse assessed as effect on fecal output at 32 mg/kg, sc and administered twice daily at 9 am and 5 pm for 3 days and measured on day 4 for 30 mins; assay type: organism-based; settings: in vivo
[20] = target: T2, Kappa-type opioid receptor (Homo sapiens, UniProt P41145); test: Agonist activity at human kappa opioid receptor expressed in CHO cell membranes assessed as stimulation of [35S]GTPgammaS binding incubated for 1 hr relative to […]; assay type: functional
[21] = target: T2, Kappa-type opioid receptor; test: Agonist activity at human kappa opioid receptor expressed in CHO cell membranes incubated for 1 hr by [35S]GTPgammaS binding assay; assay type: functional; settings: cho
[22] = Induction of spontaneous withdrawal in naloxone-induced CD-1 mouse assessed as increase in fecal pellets at 32 mg/kg, sc administered twice daily at 9 am and 5 pm for 3 days pretreated followed by naloxone challenge on day 4 at 4 hrs post compound dose and measured for 40 mins; assay type: organism-based; settings: in vivo
[23] = Induction of spontaneous withdrawal in naloxone-induced CD-1 mouse assessed as increase in urine output at 32 mg/kg, sc administered twice daily at 9 am and 5 pm for 3 days pretreated followed by naloxone challenge on day 4 at 4 hrs post compound dose and measured for 40 mins; assay type: organism-based; settings: in vivo
[24] = Induction of spontaneous withdrawal in CD-1 mouse assessed as paw tremors at 32 mg/kg, sc and administered twice daily at 9 am and 5 pm for 3 days and measured on day 4 for 30 mins; assay type: organism-based; settings: in vivo, 0.5 h
[25] = Induction of respiratory depression in CD-1 mouse assessed as reduction in respiratory rate at 32 mg/kg, ip measured over 45 mins by plethysmography; assay type: organism-based; settings: in vivo
[26] = target: T2, Kappa-type opioid receptor; test: Displacement of [3H]-diprenorphine from human kappa opioid receptor expressed in CHO cell membranes incubated for 1 hr by competition radioligand binding assay
[27] = Induction of spontaneous withdrawal in CD-1 mouse assessed as ptosis at 32 mg/kg, sc and administered twice daily at 9 am and 5 pm for 3 days and measured on day 4 for 30 mins; assay type: organism-based; settings: in vivo, 0.5 h
Mus musculus [28] = test: Antinociceptive activity in iv dosed CD-1 mouse measured after 10 to 180 mins by warm water tail-flick assay; assay type: functional, organism-based

In the case of `COc1cccc(-c2cnc3c(c2)C[C@@]2(OCCCc4ccccc4)[C@H]4Cc5ccc(O)c6c5[C@@]2(CCN4CC2CC2)[C@H]3O6)c1`, the Activity [1] is reported as “Non-Toxic”, the Activity [2] is reported as “Toxic” and the Activity [3] is reported as “Non-Toxic”. The ED50 (Mus musculus [4]) was 25.4 mg/kg, the Activity [5] was “Non-Toxic” and the Activity [6] was “Non-Toxic”. The Activity (Mus musculus [7]) was “inactive”, the Stability [8] was “Stable” and the Ki [9] was 48 nM. The Activity [10] was “Non-Toxic”, the Activity [11] was “Non-Toxic” and the Activity [12] was “Non-Toxic”. The Activity [13] was “Toxic”, the Activity [14] was “Non-Toxic” and the Activity (Mus musculus [15]) was “Active”. For the same compound, the Activity [16] was “Non-Toxic”, the IC50 [17] was 2.4 nM and the Activity [18] was “Non-Toxic”. For the same compound, the Activity [19] was “Non-Toxic”, the Emax [20] was “inactive” and the EC50 [21] was “Not Active”. The Activity [22] was “Toxic”, the Activity [23] was “Toxic” and the Activity [24] was “Non-Toxic”. The Activity [25] was “Non-Toxic”, the Ki [26] was 103 nM and the Activity [27] was “Non-Toxic”. The Activity (Mus musculus [28]) was “Dose-dependent effect”.
